{
  "source": "patent US7371822B2",
  "about": "“Human G-protein coupled receptor variant of HM74, HGPRBMY74” (Bristol-Myers Squibb Company, priority 2003, dated 2008)",
  "test_system": "human kidney 293E cells stably transfected with Gαiq—5",
  "assay": "cells",
  "settings": "293E cells with Gαiq—5 coding region only",
  "method": "The growth medium in the 6-well plate was replaced with antibiotic-free medium at 3 ml per well. DNA complexes were added at 320 μl per well and plates were returned to the incubator. […] 25 μl of this suspension was added to 30 ml of selective medium in a 15 cm tissue culture plate. Cells were maintained in selective medium for approximately two weeks. Five single clones were isolated and grown in 24-well, then 6-well, then T-75 tissue culture plates.\nThirty hours later cells were loaded with 100 μl loading dye. […] A stock solution of Probenecid (Sigma P8761) was prepared by dissolving 70 mg in 500 μl 1 M NaOH and then adding 500 μl of FIPR assay buffer. This was added to the loading solution at a final concentration of 700 μg/ml. After adding the loading dye, cells were returned to the incubator for one hour.\nAfter one hour loading, dye was removed from the wells by gentle aspiration and replaced with 120 μl of FLIPR assay buffer.\nData were analyzed and plotted using XLfit (IDBS).",
  "note": "Like-named read-outs stand apart in the source and are kept apart here.",
  "data": [
    {"smiles": "O=C(O)c1cccnc1", "note": "[nicotinic acid, Nicotinic acid]", "values": [
      {"measurement": "EC50", "setting": "Homo sapiens, read-out: calculated EC50, FIG. 5", "result": 833, "unit": "nM"},
      {"measurement": "EC50", "setting": "read-out: calculated EC50, FIG. 5", "result": 823, "unit": "nM"}
    ]}
  ]
}
